pIC50: −log10 of the molar value.
What was measured:
[1] = molecular target: B-Raf kinase (SEQ. ID NO: 2) (Homo sapiens (Human), UniProt P15056); test: Biochemical Assay for B-Raf (1); details: Table J, assay version (1); read-out: BRAF (1) IC50
In short: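 Continuous PK/LDH-coupled NADH oxidation assay, A340 read for 6 h at 30° C., with 0.13 nM B-Raf, 30.1 nM MEK substrate and 1 mM ATP in Tris pH 7.5, MgCl2, DTT, detergents, 1% DMSO. Rate taken from 4–5 h window; percent inhibition vs no-compound and known-inhibitor controls; four-parameter fit gives IC50.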

[2] = tested on: Miapaca-2 cells; test: MiaPaca-2 Cell Proliferation Assay (1); format: cell-based; details: Homo sapiens, MIA PaCa-2, single agent, read-out: MiaPaca2 (1) IC50
Method: MiaPaca-2 Cell Proliferation Assay (1)
Miapaca-2 cells (catalog #CRL-1420) are obtained from the American Type Culture Collect (ATTC, Manassas, VA). Briefly, cells were grown in DMEM supplemented with 10% characterized fetal bovine serum (Invitrogen, Carlsbad, CA), 2.5% New Zealand sourced horse serum and 1% Penicillin/Streptomycin/L-Glutamine at 37° C., 5% CO2, and 95% humidity. Cells are expanded until reaching 70-95% confluency at which point they are sub-cultured or harvested for assay use. A serial dilution of test compound is dispensed into a 96-well black clear bottom plate in triplicate. Three thousand cells are added per well in 200 μL complete growth medium in the 96-well plate. Plates are incubated for 67-72 h at 37° C., 5% CO2, and 95% humidity. At the end of the incubation, 40 μL of a 440 μM solution of resazurin (Sigma, St. Louis, MO) in PBS is added to each well of the plate and plates are incubated for an additional 5-6 h at 37° C., 5% CO2, and 95% humidity. Plates are read on a Synergy2 or equivalent reader (Biotek, Winooski VT) using an excitation of 540 nm and an emission of 600 nm. Data is analyzed using Prism software (GraphPad, San Diego, CA) to calculate IC50 values.

[3] = molecular target: A-Raf kinase (SEQ. ID No: 1) (Homo sapiens (Human), UniProt P10398, Y301D/Y302D); test: Biochemical Assay for A-Raf (1); details: Table J, assay version (1); read-out: ARAF (1) IC50
In short: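 A-Raf Y301D/Y302D at 5.55 nM phosphorylates 30.1 nM MEK with 1 mM ATP in pH 7.5 Tris buffer, 1% DMSO. Activity was read continuously as NADH oxidation at 340 nm in a pyruvate kinase/lactate dehydrogenase coupled system for 6 h at 30 °C. Rates from 4–5 h were converted to percent inhibition, and IC50 came from a four-parameter fit.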

Chain of B-Raf kinase (SEQ. ID NO: 2) (P15056 416-766): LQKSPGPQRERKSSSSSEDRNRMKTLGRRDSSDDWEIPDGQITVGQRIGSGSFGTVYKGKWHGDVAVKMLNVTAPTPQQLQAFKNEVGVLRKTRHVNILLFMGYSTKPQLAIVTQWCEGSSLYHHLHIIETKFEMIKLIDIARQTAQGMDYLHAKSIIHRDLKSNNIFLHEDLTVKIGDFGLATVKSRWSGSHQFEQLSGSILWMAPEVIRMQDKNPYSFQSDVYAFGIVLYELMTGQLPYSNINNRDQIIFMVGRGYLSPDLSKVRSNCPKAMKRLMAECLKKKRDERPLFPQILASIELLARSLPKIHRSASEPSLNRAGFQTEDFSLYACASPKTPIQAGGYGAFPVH
Chain of A-Raf kinase (SEQ. ID No: 1) (P10398 other isoform, or with tags, fused parts or gaps Y301D (already in the parent)/Y302D (already in the parent)): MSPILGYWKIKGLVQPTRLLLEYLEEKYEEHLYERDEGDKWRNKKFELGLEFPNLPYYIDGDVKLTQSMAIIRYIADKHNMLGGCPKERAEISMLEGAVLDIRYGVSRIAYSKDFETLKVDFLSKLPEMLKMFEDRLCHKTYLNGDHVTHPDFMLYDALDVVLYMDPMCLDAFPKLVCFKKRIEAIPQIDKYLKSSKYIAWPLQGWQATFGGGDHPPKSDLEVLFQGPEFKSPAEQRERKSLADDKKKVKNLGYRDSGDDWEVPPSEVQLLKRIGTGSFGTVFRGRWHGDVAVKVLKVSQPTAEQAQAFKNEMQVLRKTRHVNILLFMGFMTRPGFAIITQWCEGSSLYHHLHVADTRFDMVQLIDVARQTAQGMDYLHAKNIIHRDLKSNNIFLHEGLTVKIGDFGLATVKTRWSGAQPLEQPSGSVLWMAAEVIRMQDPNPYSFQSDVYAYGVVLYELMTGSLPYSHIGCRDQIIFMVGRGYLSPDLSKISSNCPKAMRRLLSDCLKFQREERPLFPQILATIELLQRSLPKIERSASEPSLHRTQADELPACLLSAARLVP

Structure (SMILES) | pIC50 [1] | pIC50 [2] | pIC50 [3]
CC(=O)Nc1cc(-c2cc(-c3cc(NC(=O)c4ccnc(C(F)(F)F)c4)ccc3C)cc(C)n2)ccn1 [Example 5] | ≥ 7.00 | 5.00 to 6.00 | 5.00 to 6.00
CC(=O)Nc1cc(-c2cc(-c3cc(NC(=O)c4ccnc(C(F)(F)F)c4)ccc3C)ccn2)ccn1 [Example 6] | ≥ 7.00 | 5.00 to 6.00 | 6.30 to 7.00
CCOc1cc(-c2cc(NC(=O)c3ccnc(C(F)(F)F)c3)ccc2C)cc(-c2ccnc(NC(C)=O)c2)n1 [Example 8] | ≥ 7.00 | 5.00 to 6.00 | 5.00 to 6.00
CC(=O)Nc1cc(-c2cc(-c3cc(NC(=O)c4ccnc(C(F)(F)F)c4)c(F)cc3C)cc(OC(C)C)n2)ccn1 [Example 10] | 6.30 to 7.00 |  | 5.00 to 6.00
CC(=O)Nc1cc(-c2cc(-c3cc(NC(=O)c4ccnc(C(F)(F)F)c4)ccc3C)cc(=O)n2C)ccn1 [Example 11] | 6.30 to 7.00 | 5.00 to 6.00 | 5.00 to 6.00
Cc1ncc(NC(=O)c2ccnc(C(F)(F)F)c2)cc1-c1cccc(-c2ccnc(N)c2)c1 [Example 94] | 6.30 to 7.00 | 5.00 to 6.00 | 5.00 to 6.00
Cc1ncc(NC(=O)c2cccc(C(F)(F)F)c2)cc1-c1cccc(-c2ccnc(NC(=O)CC#N)c2)c1 [Example 97] | ≥ 7.00 | 5.00 to 6.00 | 6.00 to 6.30
Cc1ccc(NC(=O)c2ccnc(C(F)(F)F)c2)cc1-c1cncc(-c2ccnc(NC(=O)CC#N)c2)n1 [Example 98] | ≥ 7.00 | 5.00 to 6.00 | 6.30 to 7.00
COCC(=O)Nc1cc(-c2cncc(-c3cc(NC(=O)c4ccnc(C(F)(F)F)c4)ccc3C)n2)ccn1 [Example 99] | ≥ 7.00 | 5.00 to 6.00 | 5.00 to 6.00
Cc1ccc(NC(=O)c2ccnc(C(F)(F)F)c2)cc1-c1cncc(-c2ccnc(NC(=O)CN(C)C)c2)n1 [Example 100] | ≥ 7.00 | 5.00 to 6.00 | 5.00 to 6.00
Cc1ccc(NC(=O)c2ccnc(C(C)(C)C#N)c2)cc1-c1ccnc(-c2ccnc3c2CC(=O)N3)n1 [Example 101] | ≥ 7.00 | 5.00 to 6.00 | 5.00 to 6.00
CC(=O)Nc1cc(-c2cc(-c3cc(NC(=O)c4ccnc(C(F)(F)F)c4)ccc3C)cn(CCO)c2=O)ccn1 [Example 102] | 6.30 to 7.00 | 5.00 to 6.00 | 5.00 to 6.00
Cc1ncc(NC(=O)c2ccnc(C(C)(C)C#N)c2)cc1-c1cccc(-c2ccnc3c2CC(=O)N3)c1 [Example 105] | 6.30 to 7.00 | 5.00 to 6.00 | 5.00 to 6.00
CNC(=O)c1cc(-c2cccc(-c3cc(NC(=O)c4ccnc(C(F)(F)F)c4)ccc3C)c2)ncn1 [Example 106] | 6.30 to 7.00 | 5.00 to 6.00 | 5.00 to 6.00
CC(=O)Nc1cc(-c2nccc(-c3cc(NC(=O)c4ccnc(C(F)(F)F)c4)c(F)cc3C)n2)ccn1 [Example 107] | ≥ 7.00 | 5.00 to 6.00 | 6.00 to 6.30
Cc1ccc(NC(=O)c2cccc(C(C)(C)C#N)c2)cc1-c1cc(OCCO)nc(-c2ccnc3c2CC(=O)N3)c1 [Example 108] | ≥ 7.00 | 5.00 to 6.00 | 5.00 to 6.00
Cc1ccc(NC(=O)c2ccnc(C(C)(C)C#N)c2)cc1-c1cccc(-c2ncnc3c2CC(=O)N3)c1 [Example 109] | ≥ 7.00 | 5.00 to 6.00 | 5.00 to 6.00
Cc1ncc(NC(=O)c2ccnc(C(C)(C)C#N)c2)cc1-c1cccc(-c2ncnc3c2CC(=O)N3)c1 [Example 110] | 6.30 to 7.00 | 5.00 to 6.00 | 5.00 to 6.00
Cc1ncc(NC(=O)c2ccnc(C(C)(C)C#N)c2)cc1-c1cccc(-c2ccnc3[nH]cnc23)c1 [Example 111] | 6.00 to 6.30 | 5.00 to 6.00 | 5.00 to 6.00
CC(=O)Nc1cc(-c2cc(-c3cc(NC(=O)c4ccnc(C(C)(C)C#N)c4)ccc3C)cn(C)c2=O)ccn1 [Example 113] | 6.30 to 7.00 | 5.00 to 6.00 | 5.00 to 6.00
CC(=O)Nc1cc(-c2cccc(-c3cc(NC(=O)c4ccnc(C(F)(F)F)c4)c(F)cc3C)c2)ncn1 [Example 114] | ≥ 7.00 | 5.00 to 6.00 | 5.00 to 6.00
COc1cc(C(=O)Nc2ccc(C)c(-c3cncc(-c4ccnc(NC(C)=O)c4)n3)c2)ccc1F [Example 120] | ≥ 7.00 | 5.00 to 6.00 | 5.00 to 6.00

Structure (SMILES) | pIC50 [1] | pIC50 [2] | pIC50 [3]
CC(=O)Nc1cc(-c2cncc(-c3cc(NC(=O)c4ccc(Cl)c(C(F)(F)F)c4)ccc3C)n2)ccn1 [Example 121] | ≥ 7.00 | 5.00 to 6.00 | 5.00 to 6.00
Cc1ccc(NC(=O)c2ccnc(C(F)(F)F)c2)cc1-c1ccnc(-c2ccnc(N)c2)n1 [Example 122] | ≥ 7.00 | 5.00 to 6.00 | 5.00 to 6.00
Cc1ccc(NC(=O)c2ccnc(C(F)(F)F)c2)cc1-c1cncc(-c2ccnc(NC=O)c2)n1 [Example 123] | ≥ 7.00 | 5.00 to 6.00 | 5.00 to 6.00
CC(=O)Nc1cc(-c2cncc(-c3cc(NC(=O)c4cccc(C(C)(C)C#N)c4)ccc3C)n2)ccn1 [Example 125] | ≥ 7.00 | 6.00 to 6.30 | 5.00 to 6.00
Cc1ncc(NC(=O)c2ccnc(C(C)(C)C#N)c2)cc1-c1cccc(-c2ncnc3[nH]ncc23)c1 [Example 129] | ≥ 7.00 | 5.00 to 6.00 | 5.00 to 6.00
COCC(=O)Nc1cc(-c2cccc(-c3cc(NC(=O)c4ccnc(C(F)(F)F)c4)cnc3C)n2)ccn1 [Example 130] | ≥ 7.00 |  | 5.00 to 6.00
Cc1ncc(NC(=O)c2ccnc(C3CC3)c2)cc1-c1cccc(-c2ncnc3[nH]ncc23)c1 [Example 131] | ≥ 7.00 | 5.00 to 6.00 | 5.00 to 6.00
CC(=O)Nc1nccc(-c2cccc(-c3cc(NC(=O)c4ccnc(C(F)(F)F)c4)ccc3C)c2)c1C#N [Example 132] | 6.30 to 7.00 | 5.00 to 6.00 | 5.00 to 6.00
Cc1ccc(NC(=O)c2ccnc(C(C)(C)C#N)c2)cc1-c1cccc(-c2ccnc3[nH]ccc23)c1 [Example 133] | 6.30 to 7.00 |  | 5.00 to 6.00
CNC(=O)c1cc(-c2cncc(-c3cc(NC(=O)c4cc(C(F)(F)F)ccn4)ccc3C)n2)ccn1 [Example 135] | ≥ 7.00 | 5.00 to 6.00 | 5.00 to 6.00
CNC(=O)c1cc(-c2cncc(-c3cc(NC(=O)c4cccc(C(C)(C)C#N)c4)ccc3C)n2)ccn1 [Example 136] | ≥ 7.00 | 5.00 to 6.00 | 5.00 to 6.00
CNC(=O)c1cc(-c2cncc(-c3cc(NC(=O)c4ccnc(C5CC5)c4)ccc3C)n2)ccn1 [Example 139] | ≥ 7.00 | 5.00 to 6.00 | 5.00 to 6.00
CC(=O)Nc1cc(-c2cncc(-c3cc(NC(=O)c4ccnc(C(C)(C)C#N)c4)ccc3C)n2)ccn1 [Example 140] | ≥ 7.00 | 6.00 to 6.30 | 6.00 to 6.30
Cc1ccc(NC(=O)c2ccnc(C(C)(C)C#N)c2)cc1-c1cncc(-c2ccnc(N)c2)n1 [Example 141] | 6.30 to 7.00 | 5.00 to 6.00 | 5.00 to 6.00
COCC(=O)Nc1cc(-c2cncc(-c3cc(NC(=O)c4ccnc(C(C)(C)C#N)c4)ccc3C)n2)ccn1 [Example 142] | ≥ 7.00 | 5.00 to 6.00 | 5.00 to 6.00
COCCNc1cc(-c2cncc(-c3cc(NC(=O)c4ccnc(C(C)(C)C#N)c4)ccc3C)n2)ccn1 [Example 143] | 6.30 to 7.00 | 5.00 to 6.00 | 5.00 to 6.00
CC(=O)Nc1cc(-c2cncc(-c3cc(NC(=O)c4ccnc(C5CC5)c4)ccc3C)n2)ccn1 [Example 145] | ≥ 7.00 | 5.00 to 6.00 | 6.00 to 6.30
CC(=O)Nc1cc(-c2cncc(-c3cc(NC(=O)c4ccnc(C5(C#N)CC5)c4)ccc3C)n2)ccn1 [Example 146] | ≥ 7.00 | 5.00 to 6.00 | 6.00 to 6.30
Cc1ccc(NC(=O)c2ccnc(C(C)(C)C#N)c2)cc1-c1cncc(-c2ccnc(C(=O)NC3CC3)c2)n1 [Example 148] | 6.30 to 7.00 | 5.00 to 6.00 | 5.00 to 6.00
CC(=O)Nc1cc(-c2nccc(-c3cc(NC(=O)c4cccc(C(C)(C)C#N)c4)ccc3C)n2)ccn1 [Example 150] | ≥ 7.00 | 5.00 to 6.00 | 6.30 to 7.00
CC(=O)Nc1cc(-c2nccc(-c3cc(NC(=O)c4ccnc(C5(C#N)CC5)c4)ccc3C)n2)ccn1 [Example 151] | ≥ 7.00 | 5.00 to 6.00 | 6.30 to 7.00
CNC(=O)c1cc(-c2cc(-c3cc(NC(=O)c4ccnc(C(C)(C)C#N)c4)ccc3C)cc(C3CC3)n2)ccn1 [Example 163] | 6.30 to 7.00 |  | 5.00 to 6.00

— patent US12319655B2, “RAF kinase inhibitors and methods of use thereof” (Deciphera Pharmaceuticals, LLC, priority 2021, dated 2025)
